Measurements reported in US20240246960A1 (adMare Therapeutics Society, priority 2021, published 2024).
Read-outs that look alike come from different tables or passages of the source.

Assays:
DNA-PK = biological target: T1, DNA-PK (Homo sapiens, UniProt P78527); assay: DNA-PK Assay for Biochemical Enzymatic Inhibition (ADP Glo Kinase assay); settings: Table 1
T1 construct: purchased Invitrogen PR9107A
Outline: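 Human DNA-PK (25 ng) preincubated 15 min with compounds (ten three-fold dilutions) in HEPES pH 7.5, MgCl2, KCl, calf thymus DNA buffer, then substrate 434.4 μM and ATP 64.4 μM (final) for 60 min at room temperature. ADP-Glo luminescence; percent inhibition fitted by four-parameter regression for IC50.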

[1] = Microsomal stability assay, mouse liver microsomes; settings: for microsomal CLint at 0.1 uM: male, CD-1, mouse, liver microsomes, pH 7.4, Microsomal Stability Mouse Clint, 0.1 mg/mL microsomes, 0.1 uM compound
[2] = biological target: T2, DNA-PK phosphorylation at Serine 2056 (Homo sapiens, UniProt P78527); assay: Cellular Assay for Inhibition of DNA-PK Phosphorylation at Serine 2056 (FaDu cells, neocarzinostatin, sandwich ELISA); assay type: cell-based; settings: Table 1
T2 construct: host or cells: FaDu
Outline: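 Readout was pSer2056 and total DNA-PK, measured by sandwich ELISA on protein-normalized lysates. Prior to lysis, compound was applied to FaDu cells for 1 h (0.3% DMSO), followed by 2 h of 1 μg/mL neocarzinostatin. IC50 values were fitted from log concentration versus % inhibition normalized to DMSO and NCS controls.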

[3] = biological target: T3, pDNA-PK ser2056 induction in HCT116 spheroids (Homo sapiens, UniProt P78527); assay: Multicellular tumour spheroid + radiation, pDNA-PK inhibition, HCT116; assay type: cell-based; settings: 20 Gy
T3 construct: endogenous in cells; host or cells: HCT116 multicellular tumour spheroids
Experimental: Multicellular tumour spheroids determination of compound inhibition of pDNA-PK induction following radiation. Tumour spheroids were grown to approximately 0.5 mm in diameter and irradiated with 20 Gy in combination with inhibitor test compounds to determine their potency. Inhibitor concentration for 50% reduction in pDNA-PK induction (IC50) was determined via immunohistochemical staining in spheroid cryosections taken 2 hours following radiation.
Spheroid, Cell Line: […], Immunohistochemical endpoint, pDNA-PK inhibition, EC50 in μm.
(§1) Spheroid+radiation pDNA-PK. Radiation: 20 Gy. Drug: serial dilution 5 or 10 μM down to 3.5 nM (11 wells). Spheroids: 3-6 spheroids per well (300-500 μm diameter). 20% O2 and 5% CO2. 96 well plate format.
Protocol: pre-incubate 1 hours with drug, irradiate with 20 Gy, post-incubate 2 hours with drug, freeze and cryosection ×3 replicates.
Endpoint: fluorescent immunostin pDNA-PK ser2056 and image on microscope.
Analysis: determine EC50 concentration that decreases pDNA-PK induction by 50% after radiation.
Multicellular tumour spheroids determination of compound inhibition of pDNA-PK induction following radiation. Tumour spheroids were grown to approximately 0.5 mm in diameter and irradiated with 20 Gy in combination with inhibitor test compounds to determine their potency. Inhibitor concentration for 50% reduction in pDNA-PK induction (IC50) was determined via immunohistochemical staining in spheroid cryosections taken 2 hours following radiation. For cell survival endpoint 8 Gy radiation was used and 3 hours following radiation spheroids were dissociated, counted and plated for colony forming endpoint.
as §1, with “format. Endpoint: fluorescent immunostain pDNA-PK ser2056 and image on microscope. Analysis: determine EC50 concentrations that decreases pDNA-PK induction […] after irradiation.” for “format.”
Multicellular tumour spheroids were used to determine potency of test compounds in a 3D tissue environment using inhibition of pDNA-PK induction following radiation or cell survival as the endpoint. For the pDNA-PK endpoint HCT116 or FaDU tumour spheroids were grown to approximately 0.5 mm in diameter and irradiated with 20 Gy in combination with inhibitor test compounds to determine their potency. Experiments were carried out in 96 well plates containing 0.7 mls of MEM media containing 10% FBS and 10 mM glucose under 20% O2 & 5% CO2 at 37° C. Following dilution of compounds 1:1000 from DMSO stocks, compounds were serially diluted from 10 μM down to 3.5 nM and 5-10 spheroids added. 96 well plates were constantly stirred to avoid spheroids settling during the course of the experiment. The inhibitor concentration for 50% reduction in pDNA-PK induction (EC50) was determined via immunohistochemical staining in spheroid cryosections taken 2 hours following radiation using anti-pDNA-PK (ser 2056) and fixed immediately in formalin following sectioning. For cell survival endpoint 8 Gy radiation was used and, 3 hours following radiation, spheroids were dissociated, counted and plated for colony forming endpoint. Data presented in the table compound potency as EC50 [μM].

[4] = Example 7, spheroid, cell line HCT115 [sic], 20% O2, read-out: EC50 (pDNA-PK inhibition, immunohistochemical endpoint)
[5] = Example 8, spheroid, read-out: Cell line: HCT116 Immunohistochemical endpoint pDNA-PK inhibition EC50
[6] = Example 9 Study 2, 20% O2, read-out: Spheroid Cell line: HCT116 Immunohistochemical endpoint pDNA-PK inhibition EC50

Row | Compound | IC50 (DNA-PK) [µM] | Microsomal Stability (mouse) % rem. 60 min [1] | microsomal CLint at 0.1 uM [1] [µL/min/mg] | IC50 [2] [µM] | EC50 [3, 4] [µM] | EC50 [3, 5] [µM] | EC50 [3, 6] [µM]
1 | C[C@]1(n2ccnc2)CC[C@@H](Oc2nc(N3CCOCC3)cc3ncccc23)CC1 [Compound 11, 4-(5-(((1s,4s)-4-(1H-imidazol-1-yl)-4-methylcyclohexyl)oxy)-1,6-naphthyridin-7-yl)morpholine] | 0.01 to 0.15 | E (% remaining = 0-25%) | > 116 | – | – | – | –
2 | O=C(N[C@H]1CC[C@@H](Oc2nc(N3CCOCC3)cc3ncccc23)CC1)N1CCOCC1 [Compound 14, N-((1s,4s)-4-((7-morpholino-1,6-naphthyridin-5-yl)oxy)cyclohexyl)morpholine-4-carboxamide] | 0.001 to 0.01 | G (% remaining = 50-75%) | < 116 | 0.1 to 1 | 1 to 10 | 1 to 10 | 1 to 10
3 | FC(F)(F)c1cnn([C@H]2CC[C@@H](Oc3nc(N4CCOCC4)cc4ncccc34)CC2)c1 [Compound 17b, 4-(5-(((1s,4s)-4-(4-(trifluoromethyl)-1H-pyrazol-1-yl)cyclohexyl)oxy)-1,6-naphthyridin-7-yl)morpholine] | 0.01 to 0.15 | E (% remaining = 0-25%) | > 116 | – | – | – | –
4 | Cc1nn([C@H]2CC[C@@H](Oc3nc(N4CCOCC4)cc4ncccc34)CC2)cc1C(F)(F)F [Compound 17g, 4-(5-(((1s,4s)-4-(3-methyl-4-(trifluoromethyl)-1H-pyrazol-1-yl)cyclohexyl)oxy)-1,6-naphthyridin-7-yl)morpholine] | 0.001 to 0.01 | E (% remaining = 0-25%) | > 116 | 1 to 10 | – | – | –
5 | c1cnc2cc(N3CCOCC3)nc(O[C@H]3CC[C@@H](n4cnnn4)CC3)c2c1 [Compound 17l, 4-(5-(((1s,4s)-4-(1H-tetrazol-1-yl)cyclohexyl)oxy)-1,6-naphthyridin-7-yl)morpholine] | – | E (% remaining = 0-25%) | > 116 | – | – | – | –
6 | c1cnc2cc(N3CCOCC3)nc(O[C@H]3CC[C@@H](n4ncnn4)CC3)c2c1 [Compound 17m, 4-(5-(((1s,4s)-4-(2H-tetrazol-2-yl)cyclohexyl)oxy)-1,6-naphthyridin-7-yl)morpholine] | 0.001 to 0.01 | E (% remaining = 0-25%) | > 116 | 0.1 to 1 | 1 to 10 | 1 to 10 | 1 to 10
7 | Brc1cnc2cc(N3CCOCC3)nc(O[C@H]3CC[C@@H](Nc4ncccn4)CC3)c2c1 [Compound 18a, N-((1s,4s)-4-((3-Bromo-7-morpholino-1,6-naphthyridin-5-yl)oxy)cyclohexyl)pyrimidin-2-amine] | 0.001 to 0.01 | E (% remaining = 0-25%) | > 116 | 0.1 to 1 | 1 to 10 | 1 to 10 | 1 to 10
8 | c1cnc(N[C@H]2CC[C@H](Oc3nc(N4CCOCC4)cc4ncccc34)CC2)nc1 [Compound 24, N-((1r,4r)-4-((7-morpholino-1,6-naphthyridin-5-yl)oxy)cyclohexyl)pyrimidin-2-amine] | 0.01 to 0.15 | F (% remaining = 25-50%) | > 116 | – | – | – | –
9 | O=C(N[C@H]1CC[C@@H](Oc2nc(N3CCOCC3)cc3ncccc23)CC1)c1ccccc1 [Compound 110, N-((1s,4s)-4-((7-Morpholino-1,6-naphthyridin-5-yl)oxy)cyclohexyl)benzamide] | < 0.0005 | – | – | < 0.1 | 1 to 10 | 1 to 10 | 1 to 10
10 | O=C(N[C@H]1CC[C@@H](Oc2nc(N3CCOCC3)cc3ncccc23)CC1)C1CCCO1 (some centres unmarked) [Compound 134, N-((1s,4s)-4-((7-Morpholino-1,6-naphthyridin-5-yl)oxy)cyclohexyl)tetrahydrofuran-2-carboxamide] | 0.001 to 0.01 | – | – | 1 to 10 | 10 to 100 | 10 to 100 | 10 to 100
11 | O=C(N[C@H]1CC[C@@H](Oc2nc(N3CCOCC3)cc3ncc(Br)cc23)CC1)c1ncccn1 [Compound 176, N-((1s,4s)-4-((3-bromo-7-morpholino-1,6-naphthyridin-5-yl)oxy)cyclohexyl)pyrimidine-2-carboxamide] | 0.0005 to 0.001 | – | – | 0.1 to 1 | 1 to 10 | – | 1 to 10
12 | CC(C)S(=O)(=O)Nc1cnc2cc(N3CCOCC3)nc(O[C@H]3CC[C@@H](Nc4ncccn4)CC3)c2c1 [Compound 187, N-(7-morpholino-5-(((1s,4s)-4-(pyrimidin-2-ylamino)cyclohexyl)oxy)-1,6-naphthyridin-3-yl)propane-2-sulfonamide] | 0.001 to 0.01 | – | – | 1 to 10 | 10 to 100 | – | 10 to 100
13 | CCS(=O)(=O)Nc1cnc2cc(N3CCOCC3)nc(O[C@H]3CC[C@@H](Nc4ncccn4)CC3)c2c1 [Compound 188, N-(7-morpholino-5-(((1s,4s)-4-(pyrimidin-2-ylamino)cyclohexyl)oxy)-1,6-naphthyridin-3-yl)ethanesulfonamide] | < 0.0005 | – | – | 0.1 to 1 | 1 to 10 | – | 1 to 10
14 | CCCS(=O)(=O)Nc1cnc2cc(N3CCOCC3)nc(O[C@H]3CC[C@@H](Nc4ncccn4)CC3)c2c1 [Compound 189, N-(7-morpholino-5-(((1s,4s)-4-(pyrimidin-2-ylamino)cyclohexyl)oxy)-1,6-naphthyridin-3-yl)propane-1-sulfonamide] | 0.001 to 0.01 | – | – | 1 to 10 | 10 to 100 | – | 10 to 100
15 | CN(c1ncccn1)[C@H]1CC[C@@H](Oc2nc(N3CCOCC3)cc3ncc(NS(C)(=O)=O)cc23)CC1 [Compound 198, N-(5-(((1s,4s)-4-(methyl(pyrimidin-2-yl)amino)cyclohexyl)oxy)-7-morpholino-1,6-naphthyridin-3-yl)methanesulfonamide] | 0.0005 to 0.001 | – | – | < 0.1 | 0.5 to 1 | – | 0.5 to 1
16 | N#Cc1cnc2cc(N3CCOCC3)nc(O[C@H]3CC[C@@H](Nc4ncccn4)CC3)c2c1 [Compound 200a, 7-morpholino-5-(((1s,4s)-4-(pyrimidin-2-ylamino)cyclohexyl)oxy)-1,6-naphthyridine-3-carbonitrile] | 0.0005 to 0.001 | – | – | 0.1 to 1 | 1 to 10 | – | 1 to 10
17 | COc1cnc(N[C@H]2CC[C@@H](Oc3nc(N4CCOCC4)cc4ncc(I)cc34)CC2)nc1 [Compound 201, N-((1s,4s)-4-((3-iodo-7-morpholino-1,6-naphthyridin-5-yl)oxy)cyclohexyl)-5-methoxypyrimidin-2-amine] | 0.001 to 0.01 | – | – | 10 to 30 | 10 to 100 | – | 10 to 100
